Laboratory results published in patent US11918624B2, “Therapeutic composition for use in the treatment of COVID-19 and other cytokine storm associated disorders” (priority 2020, dated 2024).
Ends that are not written are not given here.

Legend:
[1] = target: T1, C5aR (Homo sapiens, UniProt P21730); assay: persistence of activity of erythrocyte membrane bound peptide; conditions: erythrocyte membrane bound state
T1 construct: endogenous in cells; host or cells: 'C5aR bearing cells', not specified
T1 sequence (P21730 1-350): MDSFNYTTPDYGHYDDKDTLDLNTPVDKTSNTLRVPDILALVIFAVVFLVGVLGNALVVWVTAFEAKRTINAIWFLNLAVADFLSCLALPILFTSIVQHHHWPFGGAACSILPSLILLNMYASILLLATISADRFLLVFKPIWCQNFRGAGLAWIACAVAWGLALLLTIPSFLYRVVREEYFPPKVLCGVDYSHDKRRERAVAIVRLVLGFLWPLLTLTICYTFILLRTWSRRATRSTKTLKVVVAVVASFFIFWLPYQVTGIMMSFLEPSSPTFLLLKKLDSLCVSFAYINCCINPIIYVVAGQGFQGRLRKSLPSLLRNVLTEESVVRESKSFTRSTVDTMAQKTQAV
Experimental: The activity in vivo, in rat and pig models, is shown in the examples below. Further, it has been shown that the peptide can be delivered in vivo very safely, even at very high concentration. […] In addition, in the membrane bound state, the peptide remains active for at least 12 hours. Therefore, it is a very effective C5aR inhibitor.
(§1) Particularly, it is shown the IC50 achieved at pM levels. […] In addition, in the membrane bound state the peptide remains active for at least 12 hours. Therefore, it is a very effective C5aR inhibitor.

[2] = target: T2, C5a receptor (Homo sapiens, UniProt P21730); assay: C5a-induced Ca++ influx in C5a receptor-expressing U937 cells; type: cell-based
T2 construct: U937 cells bearing the C5a receptor were preincubated with this peptide; endogenous in cells; host or cells: U937 cells, cAMP stimulated
T2 sequence (P21730 1-350): T1 sequence (P21730 1-350)
Experimental: It was shown by its ability to inhibit Ca^++ influx induced by C5a anaphylatoxin in C5a receptor-expressing (cAMP stimulated) U937 cells.
as §1

[3] = test system: guinea pig complement; assay: antibody dependent complement mediated hemolysis assay; type: biochemical; conditions: 1 ug/mL peptide added to guinea pig complement, titrated against turkey erythrocytes with hemolysin
Experimental: The peptides were synthesized by Fmoc solid phase method, purified on C18 reversa phase chromatography, tested by adding each peptide to and screened for complement inhibitory activity, in a simple antibody dependent hemolysis system in which 1 ug/mL of peptides were added to guinea pig complement, and were titrated against turkey erythrocytes mixed with hemolysin, a complement fixing anti-erythrocyte antibody solution. In the presence the peptides, the hemolythic activity of the complement was reduced, and the corresponding dilutions was determined. The inhibition was estimated by a formula: Inhibition (%)=100−(dilution of sample titer*100)/dilution of control

[4] = test system: C5a anaphylatoxin; assay: binding of AHB peptide to antisense peptides derived from C5a; conditions: C5a amino acids 37-43 and 61-74
[5] = target: T3, endothelin receptor (Canis lupus familiaris, UniProt Q5KSU9); assay: iv ET-1 injection in dogs pretreated with peptide; type: in vivo
T3 construct: from tissue; host or cells: whole animal (dog), in vivo
T3 sequence (Q5KSU9 21-426): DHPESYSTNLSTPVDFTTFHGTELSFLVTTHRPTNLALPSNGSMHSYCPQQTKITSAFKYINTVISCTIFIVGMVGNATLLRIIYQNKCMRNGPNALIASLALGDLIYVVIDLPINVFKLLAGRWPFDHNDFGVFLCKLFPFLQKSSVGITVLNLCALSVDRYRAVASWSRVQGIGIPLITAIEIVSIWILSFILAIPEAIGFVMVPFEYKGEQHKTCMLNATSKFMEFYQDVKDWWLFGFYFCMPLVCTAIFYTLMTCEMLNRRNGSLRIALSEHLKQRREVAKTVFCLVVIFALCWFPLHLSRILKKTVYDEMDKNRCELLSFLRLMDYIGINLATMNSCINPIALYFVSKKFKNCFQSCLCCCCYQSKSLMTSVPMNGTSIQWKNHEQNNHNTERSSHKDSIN
Experimental: One of the peptides was subsequently tested in dogs and confirmed its biological effect in vivo. […] The elevated ET-1 level was marked with profound changes in circulation (details to be published elsewhere). However, pretreatment of dogs with 100 ug/kg ETR-P1/fl peptide removed the cardiovascular effects of injected ET-1 peptide from the circulation within 10 min and the measured endothelin level become normal. […] It is known in the previous art and has been patented and the patent expired.

With (LRTWSRRATRSTKTLKVV)8K4K2KV [PR226MAP] the “time the peptide remains active” value [1] was “at least 12 hours”, the “concentration of complete inhibition of C5a triggered Ca influx” value ([2]; FIG. 2) was 200 pM and the “concentration level at which C5a triggered Ca influx is inhibited” value ([2]; serial dilution) was “femtomolar concentration levels”. For the same substance, the IC50 ([2]; serial dilution, FIG. 2, read-out: IC50 of C5a triggered Ca influx) was 1 pM.
For APNHLLEVRV [AP1314, APNHLLEVRV], the “Hemolysis inhibition (% of maximum)” value [3] was greater than 80%.
With “DDLKQLANGVDRYI [DDL1619, DDLKQLANGVDRYI]” the “Hemolysis inhibition (% of maximum)” value [3] was greater than 80%.
For “DYGHYDDKDTLDLNTPVD (Complement factor 5a receptor targeting inhibitor DYG2094) [PR10]”, the “binding to antisense peptides derived from C5a anaphylatoxin” value [4] was “bound to two of its corresponding antisense peptides” and the “inhibition of C5a receptor activity / C5a-induced Ca++ influx” value [2] was “did not inhibit the receptor activity”.
With ERLGREGVQ [ERL1041, ERLGREGVQ] the “Hemolysis inhibition (% of maximum)” value [3] was >20-40%.
For ESASLRSEETKV [ESA1331, ESASLRSEETKV], the “Hemolysis inhibition (% of maximum)” value [3] was >20-40%.
With GQWKIRAYYENS [GQW1513, GQWKIRAYYENS] the “Hemolysis inhibition (% of maximum)” value [3] was no more than 20%.
In the case of “HWPFGGAACSILPSLI (Complement factor 5a receptor targeting inhibitor HWP1667) [PR101]”, the “inhibition of C5a receptor activity / C5a-induced Ca++ influx” value [2] is reported as “did not affect the C5a-induced Ca^++ influx”.
For IAVHYLDETEQW [IAV1501, IAVHYLDETEQW], the “Hemolysis inhibition (% of maximum)” value [3] was no more than 20%.
For KRPQDAKNT [KRP1057, KRPQDAKNT], the “Hemolysis inhibition (% of maximum)” value [3] was >20-40%.
“KYKHSVVKKSDGA (PL12-AHB peptide derived from C5a anaphylatoxin)” was tested, and the “inhibition of C5a receptor activity / C5a-induced Ca++ influx” value [2] was “not able to inhibit”.
For LHLSVRTLELRP [LHL1431, LHLSVRTLELRP], the “Hemolysis inhibition (% of maximum)” value [3] was >40-60%.
In the case of “LNCQRYYGGGGYST [LNC1538, LNCQRYYGGGGYST]”, the “Hemolysis inhibition (% of maximum)” value [3] is reported as >20-40%.
With “LNLCALSVDRYRAVASWSRVI (Endothelin A receptor targeting inhibitor LNL2390) [ETR-P1/fl]” the “measured endothelin level after injected ET-1” value ([5]; dogs, pretreatment 100 ug/kg) was “become normal”, the “time to removal of cardiovascular effects of injected ET-1” value ([5]; dogs, pretreatment 100 ug/kg, iv ET-1) was no more than 10 min and the “decrease of normal baseline level of ET peptide in plasma” value ([5]; dogs, transient) was 30-50%. The “increase of ET-1 binding capacity of the endothelin receptor” value ([5]; receptor frozen in inactive conformation) was 4 times.
For “LRANISHKDMQLGR (PL61-AHB peptide derived from C5a anaphylatoxin)”, the “inhibition of C5a receptor activity / C5a-induced Ca++ influx” value [2] was “not able to inhibit”.
For LRLPYVVREQL [LRL1384, LRLPYVVREQL], the “Hemolysis inhibition (% of maximum)” value [3] was no more than 20%.
For “LRTWSRRATRSTKTLKVV (Complement factor 5a receptor targeting inhibitor LRT2463) [PR226]”, the “biphasic activity on C5a receptor” value [2] was “inhibitor at high concentration and activator as low concentration”.
For LSRKVLLDGV [LSR1099, LSRKVLLDGV], the “Hemolysis inhibition (% of maximum)” value [3] was >20-40%.
With LTAYVVKVFSLA [LTA1309, LTAYVVKVFSLA] the “Hemolysis inhibition (% of maximum)” value [3] was greater than 80%.
In the case of NIFLKDSITTWE [NIF1464, NIFLKDSITTWE], the “Hemolysis inhibition (% of maximum)” value [3] is reported as >40-60%.
With QALPYSTVGNSNL [QAL1363, QALPYSTVGNSNL] the “Hemolysis inhibition (% of maximum)” value [3] was >40-60%.
“QKKIEEIAAKYKHS (PL3-AHB peptide derived from C5a anaphylatoxin)” was tested, and the “inhibition of C5a receptor activity / C5a-induced Ca++ influx” value [2] was “not able to inhibit”.
QRSYTVAIA [QRS1008, QRSYTVAIA] was tested, and the “Hemolysis inhibition (% of maximum)” value [3] was >40-60%.
In the case of “RAARISLGPRSIKAFTE (PL37-AHB peptide derived from C5a anaphylatoxin)”, the “inhibition of C5a receptor activity / C5a-induced Ca++ influx” value [2] is reported as “not able to inhibit”.
With SDAGLTFTSS [SDA984, SDAGLTFTSS] the “Hemolysis inhibition (% of maximum)” value [3] was greater than 80%.
For “SDKKGICVADPFEVT [SDK1606, SDKKGICVADPFEVT]”, the “Hemolysis inhibition (% of maximum)” value [3] was greater than 80%.
TAYVVKVFSLAVN [TAY1409, TAYVVKVFSLAVN] was tested, and the “Hemolysis inhibition (% of maximum)” value [3] was no more than 20%.
For “VQAERSGIPIVTSPYQI [VQA1857, VQAERSGIPIVTSPYQI]”, the “Hemolysis inhibition (% of maximum)” value [3] was greater than 80%.
